Data as given in patent publication US12576051B2, “Methods and composition for treating respiratory obstructive diseases” (The Regents of the University of California, priority 2019, dated 2026).
Where a name gives a salt, the structure may show the parent alone.

B1: rhDNase: recombinant human DNase, an enzyme that breaks down extracellular DNA in mucus (protein, UniProt P24855 23-282, looked up)
Deoxyribonuclease-1: LKIAAFNIQTFGETKMSNATLVSYIVQILSRYDIALVQEVRDSHLTAVGKLLDNLNQDAPDTYHYVVSEPLGRNSYKERYLFVYRPDQVSAVDSYYYDDGCEPCGNDTFNREPAIVRFFSRFTEVREFAIVPLHAAPGDAVAEIDALYDVYLDVQEKWGLEDVMLMGDFNAGCSYVRPSQWSSIRLWTSPTFQWLIPDSADTTATPTHCAYDRIVVAGMLLRGAVVPDSALPFNFQAAYGLSDQLAQAISDHYPVEVMLK

Tests used:
[1] = cited from earlier work
[2] = tested on: porcine airway; assay: Ex vivo porcine airway models (summary statement)
Description: Abnormal mucus accumulation in airways has deleterious, and fatal consequence in patients suffering from respiratory obstructive diseases, such as cystic fibrosis (CF), COPD and asthma. Therefore, there is a need for therapies aimed at decreasing mucus accumulation to facilitate airway mucus clearance.

[3] = tested on: respiratory secreted mucus; assay: Mucolytic activity on respiratory secreted mucus of open porcine trachea sections (alcian blue); conditions: 2 mM, HCO3-Ringer with PGE2 (1 uM) and alcian blue (0.02%), 10 minutes at 37° C., untreated showed clusters of secreted mucus
Experimental: (§1) FIG. 16 provides the mucolytic activity of compounds 646 and 647 on respiratory secreted mucus. Small sections of open porcine trachea (˜2 cm^2) were covered with HCO3-Ringer solution ([…]) containing PGE2 (1 uM) and alcian blue (0.02%), with or without compounds at a 2 mM final concentration, and then incubated for 10 minutes at 37° C.
as §1, with “17” for “16”, “655” for “646”, “656” for “647”

[4] = tested on: secreted Muc5ac mucin; assay: Mucolytic activity on secreted Muc5ac mucin of open porcine trachea sections (western blot); conditions: for native Muc5ac levels on epithelial luminal surfaces (immunoblot) / breaking down the mucus (secreted Muc5ac western blot): 2 mM; for native Muc5ac levels on epithelial luminal surfaces (immunoblot): HCO3-Ringer with PGE2 (1 uM), 10 minutes at 37° C., FIG. 18; for breaking down the mucus (secreted Muc5ac western blot): 5 minutes at 37° C., then 7% NaCl inhaled solution 5 mins, FIG. 19
Experimental: FIG. 18 provides the mucolytic activity of compounds on secreted Muc5ac mucin. Epithelial luminal surface of open porcine trachea sections (˜2 cm^2) were covered with HCO3-Ringer solution ([…]) containing PGE2 (1 uM), and alcian blue (0.02%), with or without compounds at a 2 mM final concentration, and incubated for 10 minutes at 37° C. Equal volumes of each collected sample were separated on vertical electrophoresis, and then transfer to an immobilon-P membrane for western blot analysis. […] Densitometric signal of the untreated sample, as control, was normalized to 100% (% arbitrary units).
Epithelial luminal surface of open porcine trachea sections (˜2 cm^2) were covered with […] of HCO3-Ringer solution containing PGE2 (1 uM), in the presence or absence of compounds at a 2 mM final concentration, and incubated for 5 minutes at 37° C. Afterwards, […] of sterile 7% NaCl inhaled solution was added and incubated for another 5 mins at 37° C. Equal volumes of each collected sample were separated on vertical electrophoresis, and then transferred to an immobilon-P membrane for western blot analysis. […] Densitometric signal of the non-treated sample, as control, was normalized to 100% (% arbitrary units).

[5] = tested on: Muc5ac mucin from porcine airway mucus; assay: Mucolytic effect on Muc5ac mucin from porcine airway mucus (western blot, densitometry); assay type: biochemical; conditions: 2 mM, 30 mins at 37° C.; compound preincubated in HCO3-Ringer, HCO3-Ringer/acetic acid or acetate buffer pH 4.5
Experimental: (§2) (Upper panel) Identification of Muc5ac mucin (black arrow) by western blot, from airway mucus sample collected in HCO3-Ringer and treated with or without 2 mM of compound 646 for 30 mins at 37° C. Lane CTRL, untreated sample as control. Lane Bic, sample treated with compound preincubated in HCO3-Ringer; lane Bic/Ac, sample treated with compound preincubated with 1:1 HCO3-Ringer/Acetic acid 0.1N; lane Ac, sample treated with compound preincubated in acetate buffer 1M, pH 4.5. Lower panel, densitometric analysis of the protein bands identified with the Muc5ac mucin antibody. Densitometric signal of the sample control (CTRL) was normalized as 100% (% arbitrary units).
as §2, with “647” for “646”, “4.5, as described under Methods.” for “4.5.”, “units). Control is pH 8, Bic 7.4, Bic/AC 6.9 AND AC 6.2” for “units).”
as §2, with “655” for “646”
as §2, with “compounds 656” for “compound 646”

Molecule	accumulation of viscous mucus and mucociliary clearance [2]	native Muc5ac levels on epithelial luminal surfaces (immunoblot) [4]	influence of acidic and basic conditions on mucolytic activity on porcine Muc5ac mucin [5]	further results
CC(C)(C)c1cc(C(C)(C)C)c(NC(=O)c2c[nH]c3ccccc3c2=O)cc1O [Ivacaftor, reference compound]	–	–	–	improvement of lung function ([1]; taken by mouth, CF with ivacaftor-responsive mutations): about 10%
Cl.[2H]C([2H])(S)CN [Compound 656, 2-mercaptoethan-2,2-d2-1-aminium chloride]	prevented accumulation of viscous mucus and improves mucociliary clearance	decreased native Muc5ac levels	enhanced under acidic conditions	appearance of secreted mucus on trachea sections [3]: dispersed secreted mucus
[2H]C(CN)SSC([2H])CN (stereo not drawn) [Compound 647, 2,2′-disulfanediylbis(ethan-2-d-1-amine) dihydrochloride]	prevented accumulation of viscous mucus and improves mucociliary clearance	decreased native Muc5ac levels	enhanced under acidic conditions	appearance of secreted mucus on trachea sections ([3]; dihydrochloride): dispersed clusters of secreted mucus; breaking down the mucus (secreted Muc5ac western blot) [4]: consistently works well in breaking down the mucus
Cl.Cl.[2H]C([2H])(CN)SSC([2H])([2H])CN [Compound 655, 2,2′-disulfanediylbis(ethan-2,2-d2-1-aminium) chloride]	prevented accumulation of viscous mucus and improves mucociliary clearance	decreased native Muc5ac levels	enhanced under acidic conditions	appearance of secreted mucus on trachea sections [3]: dispersed secreted mucus; breaking down the mucus (secreted Muc5ac western blot) [4]: consistently works well in breaking down the mucus; mucolytic activity in comparison ([4]; comparison between deuterated cystamine compounds): better mucolytic activity than Compound 647
NCCSSCCN [cystamine, reference compound]	prevented accumulation of viscous mucus and improves mucociliary clearance	–	–	–
CC(=O)N[C@@H](CS)C(=O)O [NAC, N-acetylcysteine, reference compound]	–	–	–	efficacy with respect to improvement of lung function or reduction in pulmonary exacerbations ([1]; inhaled, CF and COPD): do not support the efficacy
B1	–	–	–	clinical benefit ([1]; inhaled, adult CF subjects): substantial clinical benefits; efficacy ([1]; obstructive diseases other than CF): ineffective
